Structures can show the parent of a compound that is named as a salt.

The first data set concerns HCT116 cells.
Experiment: not given
Conditions: not given
Take `N#CCc1ccc(-c2cc(Nc3cccc(Oc4ccnc(C(N)=O)c4)c3)nc(N)n2)cc1` [Example 294, 4-[3-({2-amino-6-[4-(cyanomethyl)phenyl]pyrimidin-4-yl}amino)phenoxy] pyridine-2-carboxamide]: the IC50 (commonly the concentration that inhibits the measured activity by half) lay in the range of 500 to 2000 nM.

The next data set relates to HCT116 cells. The data set is described as follows: HCT116 cytotoxic activity assay (Alamar Blue, 72 h). As to conditions: Homo sapiens, HCT-116, read-out: IC50 in the HCT116 cytotoxic activity assay. For orientation: Alamar Blue is a resazurin reagent that responds to reducing activity.
Method: Human tumor cells, e.g., HCT116 cells, are seeded in a 96-well plate at 3.0×10^3 cells/well and grown in 100 μl of RPMI complete media (Invitrogen Corporation, Grand Island, N.Y.) containing 10% fetal bovine serum (Hyclone, Logan, Utah) and 10 mM HEPES and at 37° C. for 16 h in an incubator with 5% CO2. To each well, 50 μl of additional growth media containing 20 μM to 60 nM concentrations of compound with 0.2% DMSO is added. Cells are grown for another 72 h at 37° C. 20 μl of Alamar Blue (Trek Diagnostic Systems, Inc., Cleveland, Ohio) reagent is added to each well and incubated for 4 h at 37° C. Plates are read in a SpectraMax Gemini (Molecular Devices, CA) with 544 nm excitation and 590 nm emission wavelength. IC50 values are determined by linear regression analysis of log drug concentration versus percent inhibition.
For `NCc1cc(Oc2ccc(Nc3cc(-c4ccccc4)nc(N)n3)cc2)ccn1` [Example 39, N^4-(4-{[2-(aminomethyl)pyridin-4-yl]oxy}phenyl)-6-phenylpyrimidine-2,4-diamine], the IC50 was no more than 500 nM.

With `Nc1nc(Nc2ccc(Oc3ccnc(CNS(=O)(=O)c4ccccc4)c3)cc2)cc(-c2ccccc2)n1` [Example 96, N-[(4-{4-[(2-amino-6-phenylpyrimidin-4-yl)amino]phenoxy}pyridin-2-yl)methyl]benzenesulfonamide trifluoroacetate], the IC50 is no more than 500 nM.

Take `Cn1cnc(S(=O)(=O)NCc2cc(Oc3ccc(Nc4cc(-c5ccccc5)nc(N)n4)cc3)ccn2)c1` [Example 93, N-[(4-{4-[(2-amino-6-phenylpyrimidin-4-yl)amino]phenoxy}pyridin-2-yl)methyl]-1-methyl-1H-imidazole-4-sulfonamide trifluoroacetate]: the IC50 is greater than 2000 nM.

With `COC[C@@H]1CCCN1C(=O)c1cc(Oc2ccc(Nc3cc(-c4ccccc4)nc(N)n3)cc2)ccn1` [Example 81, N4*-{4-[(2-{[(2S)-2-(methoxymethylpyrrolidin-1-yl]carbonyl}pyridin-4-yl)oxy]phenyl}-6-phenylpyrimidine-2,4-diamine trifluoroacetate], the IC50 is greater than 2000 nM.

For `Nc1nc(Nc2ccc(Oc3ccnc(NCc4ccccc4)c3)cc2)cc(-c2ccccc2)n1` [Example 132, N4*-(4-{[2-(benzylamino)pyridin-4-yl]oxy}phenyl)-6-phenyl-pyrimidine-2,4-diamine trifluoroacetate], the IC50 lay in the range of 500 to 2000 nM.

For the molecule `NCCCC(=O)Nc1ccc(-c2cc(Nc3ccc(Oc4ccnc(C(F)(F)F)c4)cc3)nc(N)n2)cc1` [Example 152, 4-amino-N-(4-{2-amino-6-[(4-{[2-(trifluoromethyl)pyridin-4-yl]oxy}phe-nyl)amino]pyrimidin-4-yl}phenyl)butanamide trifluoroacetate], the IC50 was in the range of 500 to 2000 nM.

Regarding `NCC(=O)Nc1ccc(-c2cc(Nc3ccc(Oc4ccnc(C(F)(F)F)c4)cc3)nc(N)n2)cc1` [Example 151, N-(4-{2-amino-6-[(4-{[2-(trifluoromethyl)pyridin-4-yl]oxy}phe-nyl)amino]pyrimidin-4-yl}phenyl)glycinamide trifluoroacetate], the IC50 was no more than 500 nM.

In the case of `NC(=O)NCc1cc(Oc2ccc(Nc3cc(-c4ccccc4)nc(N)n3)cc2)ccn1` [Example 101, N-[(4-{4-[(2-amino-6-phenylpyrimidin-4-yl)amino]phenoxy}pyridin-2-yl)methyl]urea trifluoroacetate], the concentration for half-maximal inhibition (IC50) lay within 500 to 2000 nM.

In the case of `CC(C)S(=O)(=O)NCc1cc(Oc2ccc(Nc3cc(-c4ccccc4)nc(N)n3)cc2)ccn1` [Example 95, N-[(4-{4-[(2-amino-6-phenylpyrimidin-4-yl)amino]phenoxy}pyridin-2-yl)methyl]propane-2-sulfonamide trifluoroacetate], the IC50 is no more than 500 nM.

With `COc1cc(-c2cc(Nc3ccc(Oc4ccnc(C#N)c4)cc3)nc(N)n2)ccc1N` [Example 179, 4-(4-{[2-amino-6-(4-amino-3-methoxyphenyl)pyrimidin-4-yl]a-mino}phenoxy)pyridine-2-carbonitrile trifluoroacetate], the IC50 is no more than 500 nM.

Turning to `Nc1nc(Nc2ccc(Oc3ccnc(CNS(=O)(=O)c4ccc(F)cc4)c3)cc2)cc(-c2ccccc2)n1` [Example 98, N-[(4-{4-[(2-amino-6-phenylpyrimidin-4-yl)amino]phenoxy}pyridin-2-yl)methyl]-4-fluorobenzenesulfonamide trifluoroacetate], the IC50 is no more than 500 nM.

Turning to `Nc1nc(Nc2ccc(Oc3ccnc(C(=O)N4CC[C@@H](O)C4)c3)cc2)cc(-c2ccccc2)n1` [Example 82, (3R)-1-[(4-{4-[(2-amino-6-phenylpyrimidin-4-yl)amino]phenoxy}pyridin-2-yl)carbonyl] pyrrolidin-3-ol trifluoroacetate (salt)], the half-inhibitory concentration (IC50) lay within 500 to 2000 nM.

With `COc1ccc(S(=O)(=O)NCc2cc(Oc3ccc(Nc4cc(-c5ccccc5)nc(N)n4)cc3)ccn2)cc1` [Example 97, N-[(4-{4-[(2-amino-6-phenylpyrimidin-4-yl)amino]phenoxy}pyridin-2-yl)methyl]-4-methoxybenzenesulfonamide trifluoroacetate], the IC50 is no more than 500 nM.

As to `CCS(=O)(=O)NCc1cc(Oc2ccc(Nc3cc(-c4ccccc4)nc(N)n3)cc2)ccn1` [Example 94, N-[(4-{4-[(2-amino-6-phenylpyrimidin-4-yl)amino]phenoxy}pyridin-2-yl)methyl]ethanesulfonamide trifluoroacetate], the IC50 is no more than 500 nM.

Source of the values: patent US7582646B2, “Pyrimidine derivatives for treatment of hyperproliferative disorders” (Bayer Pharmaceuticals Corporation, priority 2003, dated 2009).
